System: Rat Hydrochloric Acid-induced Cystitis Model
Assay: Evaluation in a rat hydrochloric acid-induced cystitis model (cystometry)
Format: in vivo
Procedure: On day 1, Crlj:CD(SD) male rats at 8 weeks of age were anesthetized by 2% isofurane inhalation and the abdomen of the rats were opened. After cannula was inserted into the bladder and fixed, the incision was closed with suture. On day 2, 0.2 N hydrochloric acid was injected into the bladder through cannula for 15 min to induce cystitis. On day 3, the first oral administration of a drug was performed. Since then, the drug was administrated once a day continuously for 7 days. As a retinoid drug, 3 mg/kg tamibarotene (Am80, 4-[(5,6,7,8-tetrahydro-5,5,8,8-tetramethyl-2-naphthalenyl)-carbamoyl] benzoic acid) suspended in 0.5% carboxymethylcellulose was orally administered. For the control group, 0.5% carboxymethylcellulose was orally administered. On day 10, bladder function under unanesthetized and unrestrained state was evaluated by cystometry. Via a three-way stopcock, warm saline (37° C.) was infused into the tube which was inserted into the bladder. At the other end of a three-way stopcock, bladder pressure was measured for 60 min by a pressure amplifier through a pressure transducer. At the same time, the weight change of excreted urine was measured using a balance. From these measured data, basal bladder pressure, maximum bladder pressure, micturition interval, and micturition volume were calculated. 5 rats were used in each group, control and tamibarotene group.
Values were indicated as average ±standard error. The difference between averages of control group and tamibarotene group was evaluated by Student's t-test (***p<0.001 compared with control).

[1] = 3 mg/kg oral once a day for 7 days, cystometry on day 10, unanesthetized unrestrained rats, average ± standard error

`CC1(C)CCC(C)(C)c2cc(NC(=O)c3ccc(C(=O)O)cc3)ccc21` [Tamibarotene, 4-[(5,6,7,8-tetrahydro-5,5,8,8-tetramethyl-2-naphthalenyl)-carbamoyl] benzoic acid] was tested, and the Basal bladder pressure [1] was 15.1 ± 2.8 mmHg, the Maximum bladder pressure [1] was 36.6 ± 6.0 mmHg and the Micturition volume (3 mg/kg oral once a day for 7 days, cystometry on day 10, average ± standard error) was 0.61 ± 0.24 g. The Micturition interval (3 mg/kg oral once a day for 7 days, cystometry on day 10, average ± standard error, ***p<0.001 compared with control) was 884 ± 113*** second and the “Micturition interval compared to control group (in words)” value (3 mg/kg tamibarotene-administered group vs control, Student's t-test) was “significantly improved”.

From patent US7902260B2, “Medicament for preventive and/or therapeutic treatment of lower urinary tract symptom” (Kemphys Ltd., priority 2007, dated 2011)
